One data set can be described thus: in vivo. The conditions noted are these: mouse, po, Swiss mice, 14 days observation. Here is the method:
The acute toxicity was determined by administering by oral route the substances under exam to Swiss mice; average weight 20.-+.2 g. The observation period was 14 days. 10 Animals were used for each tested dose.

Another data set deals with Carbachole salivation. Description: Carbachole salivation in the rat. Format: in vivo, rat (male Sprague-Dawley). The conditions noted are these: 62.5 mg/kg p.o., one hour before carbachole 1 mg/kg i.p. The procedure:
Carbachole salivation in the rat
The method cited by R. Turner: "Parasympatholytic Agents" in R. Turner "Screening Methods in Pharmacology" pag. 137. Academic Press. New York and London 1965, with slight changes, was used.
Male Sprague-Dawley rats, average weight 150.-+.5 g, fasting since 24 hours, were used.
The salivation was induced by the intraperitoneal administration of 1 mg/kg of carbachole.
The products under exam were administered orally one hour before the cholinergic stimulus.

The test system of another data set is Gastric acid secretion. Description: Gastric acid secretion in the pylorus ligated rat (antisecretory activity). Format: in vivo, rat (male Sprague-Dawley). Conditions: 4 hours. The procedure: Gastric acid secretion in the pylorus ligated rat
Male Sprague-Dawley rats weighing 150.-+.5 g fasting since 48 hours were used. Pylorus ligation was performed for 4 hours. The products under exam were administered by the oral route immediately after the ligation.

The next data set concerns muscarinic receptor. In words: Interaction with muscarinic receptor (displacement of 3H-QNB bound to rat cerebral cortex receptors). It counts as binding. Details: unit not given here.
[1] abbreviates: concentration 10^-5 (unit not given).
Setting [2] is: concentration 10^-6 (unit not given).
The mark [3] stands for this setting: concentration 10^-7 (unit not given).

The LD50 is the dose expected to kill half of the subjects tested.

On to `CN1CCN(CC(=O)N2c3ccccc3C(=S)Nc3cccnc32)CC1` [Compound 6, 11-[2-(4-Methylpiperazin-1-yl)acetyl]-5,11-dihydro-6H-pyrido[2,3-b][1,4]benzodiazepin-6-thione], for which the LD50 at 336 h in “in vivo” is under 500 mg/kg. In addition, the “Carbachol salivation - % protection” value in the data set on Carbachole salivation worked out at 10%. The “% Antisecretory activity” value with Gastric acid secretion (6.25 mg/kg p.o.) amounted to 7.2%; in the data set with Gastric acid secretion (12.5 mg/kg p.o.) it was 25.8%; in the data set with Gastric acid secretion (25 mg/kg p.o.) it was 51.4%. Also, the “Interaction with muscarinic receptor” value with muscarinic receptor (setting [1]) amounted to 85.5; in the data set on muscarinic receptor (setting [2]), 43.9; with muscarinic receptor (setting [3]), 7.5.
Turning to `CC(C(=O)N1c2ccccc2C(=O)Nc2cccnc21)N1CCCCC1` (stereo not shown) [Compound 1, 11-[2-(Piperidin-1-yl)propionyl]-5,11-dihydro-6H-pyrido-[2,3-b][1,4]benzodiazepin-6-one], the LD50 at 336 h in the data set “in vivo” was over 500 mg/kg. Moreover, the “Carbachol salivation - % protection” value in the data set on Carbachole salivation is 0%. The “% Antisecretory activity” value with Gastric acid secretion (6.25 mg/kg p.o.) is reported as 10.3%; with Gastric acid secretion (12.5 mg/kg p.o.), 36.3%; in the data set with Gastric acid secretion (25 mg/kg p.o.), 71.3%. For the same molecule, the “Interaction with muscarinic receptor” value in the data set with muscarinic receptor (setting [1]) stood at 46.6; with muscarinic receptor (setting [2]) it was 3.96; in the data set on muscarinic receptor (setting [3]), 0.
Consider `CC1(C)CCCN(CC(=O)N2c3ccccc3C(=O)Nc3cccnc32)C1` [Compound 10], for which the LD50 at 336 h in “in vivo” was over 500 mg/kg. Moreover, the “Carbachol salivation - % protection” value in the data set with Carbachole salivation is on record as 0%. For the same molecule, the “% Antisecretory activity” value in the data set with Gastric acid secretion (6.25 mg/kg p.o.) is given as 12.4%; in the data set on Gastric acid secretion (12.5 mg/kg p.o.) it was 24.7%; in the data set on Gastric acid secretion (25 mg/kg p.o.) it was 41.5%. Further, the figures for the “Interaction with muscarinic receptor” value in the data set on muscarinic receptor (setting [1]), in the data set with muscarinic receptor (setting [2]) and with muscarinic receptor (setting [3]) were 30.2, 0.2 and 0, respectively.
For the molecule `CN1CCN(CC(=O)N2c3ccccc3C(=O)Nc3cccnc32)CC1` [P, Pirenzepine, reference compound], the “Carbachol salivation - % protection” value with Carbachole salivation amounted to 10%. Also, the figures for the “% Antisecretory activity” value with Gastric acid secretion (6.25 mg/kg p.o.), with Gastric acid secretion (12.5 mg/kg p.o.) and in the data set with Gastric acid secretion (25 mg/kg p.o.) were 7.9%, 46.0% and 71.5%, respectively.
With `O=C1Nc2cccnc2N(C(=O)CN2CCCCCC2)c2ccccc21` [Compound 2, 11-[2-(Hexamethylenimino)acetyl]-5,11-dihydro-6H-pyrido[2,3-b][1,4]benzodiazepin-6-one], the LD50 at 336 h in the data set “in vivo” was over 500 mg/kg. The “Carbachol salivation - % protection” value in the data set on Carbachole salivation is given as 100%. The “% Antisecretory activity” value with Gastric acid secretion (6.25 mg/kg p.o.) is 11.6%; in the data set with Gastric acid secretion (12.5 mg/kg p.o.), 33.7%; in the data set with Gastric acid secretion (25 mg/kg p.o.) it was 55.2%. Also, the “Interaction with muscarinic receptor” value is reported as 93.3 in the data set with muscarinic receptor (setting [1]), 49.7 in the data set on muscarinic receptor (setting [2]) and 12.8 in the data set with muscarinic receptor (setting [3]).
In “in vivo”, `CC1CCCCN1CC(=O)N1c2ccccc2NC(=O)c2cccnc21` (stereo not shown) [Compound 5, 11-[2-(2-Methylpiperidin-1-yl)acetyl]-6,11-dihydro-5H-pyrido[2,3-b][1,5]benzodiazepin-5-one] came in with an LD50 at 336 h of under 500 mg/kg. Also, the “Carbachol salivation - % protection” value in the data set on Carbachole salivation was 100%. Further, the figures for the “% Antisecretory activity” value with Gastric acid secretion (6.25 mg/kg p.o.), with Gastric acid secretion (12.5 mg/kg p.o.) and in the data set on Gastric acid secretion (25 mg/kg p.o.) were 18.7%, 58.4% and 66.7%, respectively. The “Interaction with muscarinic receptor” value worked out at 96.9 in the data set on muscarinic receptor (setting [1]), 71.7 with muscarinic receptor (setting [2]) and 14.6 with muscarinic receptor (setting [3]).
Regarding `O=C1Nc2cccnc2N(C(=O)CCN2CCCCCC2)c2ccccc21` [Compound 4, 11-[3-(Hexamethylenimino)propionyl]-5,11-dihydro-6H-pyrido[2,3-b][1,4]benzodiazepin-6-one], the LD50 at 336 h in “in vivo” is under 500 mg/kg. Moreover, the “Carbachol salivation - % protection” value with Carbachole salivation is 50%. For the same molecule, the “% Antisecretory activity” value was determined as 21.5% with Gastric acid secretion (6.25 mg/kg p.o.), 50.2% in the data set on Gastric acid secretion (12.5 mg/kg p.o.) and 64.1% in the data set with Gastric acid secretion (25 mg/kg p.o.). Further, the “Interaction with muscarinic receptor” value in the data set with muscarinic receptor (setting [1]) was found to be 94.4; in the data set with muscarinic receptor (setting [2]), 54.3; in the data set with muscarinic receptor (setting [3]), 3.0.

The record behind these values is US4556653A, “Pyrido[1,5]benzodiazepinone derivatives and pharmacological activities thereof” (Dompe' Farmaceutica S.p.A., priority 1983, dated 1985).
